15 molecules from US20140228349A1, “5,7-SUBSTITUTED-IMIDAZO[1,2-C]PYRIMIDINES” (Array BioPharma Inc., priority 2011, published 2014) can be followed below.

One may read the IC50 as the midpoint of a concentration-inhibition curve.

SMILES strings stand for the structures.

Common to all, as to format: biochemical
One test deals with T1, JAK1 (Homo sapiens, UniProt P23458).
T1 construct: purchased Invitrogen Corporation, Carlsbad, Calif; IVGN PV4775
The test is described as follows: JAK1 Inhibition Assay (Omnia kinase fluorescence peptide substrate). Particulars: averaged IC50 ranges; 40 μM (Km app) or 1 mM ATP, 15 nM JAK1. The gist of the method: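 15 nM JAK1, 8 μM Omnia Y12 peptide, 40 μM (Km app) or 1 mM ATP; 25 mM HEPES pH 7.4, 10 mM MgCl2, 2% DMSO. Fluorescence (ex 360/em 485 nm) read every 50 s over 45 min. IC50 by 4-parameter fit of percent of control, top dose 10 μM.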

The target of another test is T2, JAK3 (Homo sapiens, UniProt P52333).
T2 construct: purchased Invitrogen Corporation, Carlsbad, Calif; IVGN PV4080
T2 sequence (P52333 1-1124): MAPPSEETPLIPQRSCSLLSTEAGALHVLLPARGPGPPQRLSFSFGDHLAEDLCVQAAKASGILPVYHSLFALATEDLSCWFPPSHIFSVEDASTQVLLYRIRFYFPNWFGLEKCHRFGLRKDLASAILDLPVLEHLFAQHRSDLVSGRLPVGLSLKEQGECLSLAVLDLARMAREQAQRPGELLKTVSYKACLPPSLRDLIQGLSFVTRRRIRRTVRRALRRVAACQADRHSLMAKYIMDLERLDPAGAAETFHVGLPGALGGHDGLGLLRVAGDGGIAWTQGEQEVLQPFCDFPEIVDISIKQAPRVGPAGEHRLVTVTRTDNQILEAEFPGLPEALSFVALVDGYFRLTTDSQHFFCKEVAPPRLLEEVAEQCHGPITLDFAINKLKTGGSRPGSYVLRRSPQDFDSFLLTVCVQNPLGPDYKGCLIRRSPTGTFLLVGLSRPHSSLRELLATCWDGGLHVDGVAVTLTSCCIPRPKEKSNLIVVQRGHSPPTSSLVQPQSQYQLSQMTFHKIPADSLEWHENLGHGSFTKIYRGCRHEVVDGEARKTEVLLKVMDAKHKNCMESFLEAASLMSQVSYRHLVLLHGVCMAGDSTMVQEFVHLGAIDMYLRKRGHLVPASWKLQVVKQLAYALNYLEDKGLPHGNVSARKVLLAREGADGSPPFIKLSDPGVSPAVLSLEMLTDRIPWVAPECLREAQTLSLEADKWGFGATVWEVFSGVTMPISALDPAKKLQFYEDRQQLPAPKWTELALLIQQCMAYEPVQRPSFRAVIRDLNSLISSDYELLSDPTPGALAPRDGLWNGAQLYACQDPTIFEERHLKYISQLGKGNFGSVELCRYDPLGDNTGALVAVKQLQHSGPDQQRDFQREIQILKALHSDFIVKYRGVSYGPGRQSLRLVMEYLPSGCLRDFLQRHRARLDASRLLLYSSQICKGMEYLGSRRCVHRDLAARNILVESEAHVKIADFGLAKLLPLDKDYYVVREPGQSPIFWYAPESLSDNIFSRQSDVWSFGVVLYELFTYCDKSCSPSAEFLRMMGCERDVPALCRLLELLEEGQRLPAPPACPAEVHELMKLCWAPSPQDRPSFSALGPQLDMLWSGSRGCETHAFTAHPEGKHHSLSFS
The test is described as follows: JAK3 Inhibition Assay (Omnia kinase fluorescence peptide substrate). The following applies: averaged IC50 ranges; 10 μM (Km app) or 1 mM ATP, 2.5 nM JAK3. The gist of the method:
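IC50 is the concentration giving 50 percent of control on a 4-parameter logistic fit of 10-point, 3-fold dilutions from a 10 μM top dose, at 2% final DMSO. Kinetic Sox fluorescence (360/485 nm) was monitored every 50 s for 45 min. Mix: JAK3 2.5 nM, Omnia Y7 peptide 10 μM, ATP 10 μM (Km app) or 1 mM, in HEPES pH 7.4 buffer with MgCl2, Triton X-100 and DTT.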

The next test addresses T3, JAK2 (Homo sapiens, UniProt O60674).
T3 construct: purchased Invitrogen Corporation, Carlsbad, Calif; IVGN PV4288
The test is described as follows: JAK2 Inhibition Assay (Omnia kinase fluorescence peptide substrate). Particulars: averaged IC50 ranges; 25 μM (Km app) or 1 mM ATP, 5 nM JAK2.

The target in the next test is T4, Human Tyk2 kinase domain (Homo sapiens, UniProt P29597).
T4 construct: comprising amino acids 886 to 1187; His10 (10 histidine residues) (C, cleaved yes); made in house
T4 sequence (P29597 886-1187): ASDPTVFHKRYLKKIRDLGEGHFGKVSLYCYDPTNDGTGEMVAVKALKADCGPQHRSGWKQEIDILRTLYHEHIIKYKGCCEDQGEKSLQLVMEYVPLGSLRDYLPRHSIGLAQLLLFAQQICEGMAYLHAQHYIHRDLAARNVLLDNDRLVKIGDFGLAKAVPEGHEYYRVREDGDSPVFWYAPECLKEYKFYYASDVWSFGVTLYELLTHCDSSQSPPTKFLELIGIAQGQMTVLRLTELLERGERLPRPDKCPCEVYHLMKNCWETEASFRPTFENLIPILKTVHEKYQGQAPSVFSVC
The test is described as follows: Tyk2 Inhibition Assay (Omnia kinase fluorescence peptide substrate). Particulars: averaged IC50 ranges; 10 μM (Km app) or 1 mM ATP, 2 nM Tyk2. The method in brief: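 Phosphorylation of 8 μM Omnia Y12 peptide followed kinetically by Sox fluorescence, ex 360/em 485 nm, every 50 s for 45 min. Enzyme: 2 nM Tyk2 kinase domain (aa 886–1187, His tag removed); ATP at 10 μM (Km app) or 1 mM; buffer HEPES pH 7.4 with MgCl2, Triton X-100, DTT. 10-point curves up to 10 μM, IC50 from 4-parameter logistic fit.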

T1 sequence (P23458 whole entry): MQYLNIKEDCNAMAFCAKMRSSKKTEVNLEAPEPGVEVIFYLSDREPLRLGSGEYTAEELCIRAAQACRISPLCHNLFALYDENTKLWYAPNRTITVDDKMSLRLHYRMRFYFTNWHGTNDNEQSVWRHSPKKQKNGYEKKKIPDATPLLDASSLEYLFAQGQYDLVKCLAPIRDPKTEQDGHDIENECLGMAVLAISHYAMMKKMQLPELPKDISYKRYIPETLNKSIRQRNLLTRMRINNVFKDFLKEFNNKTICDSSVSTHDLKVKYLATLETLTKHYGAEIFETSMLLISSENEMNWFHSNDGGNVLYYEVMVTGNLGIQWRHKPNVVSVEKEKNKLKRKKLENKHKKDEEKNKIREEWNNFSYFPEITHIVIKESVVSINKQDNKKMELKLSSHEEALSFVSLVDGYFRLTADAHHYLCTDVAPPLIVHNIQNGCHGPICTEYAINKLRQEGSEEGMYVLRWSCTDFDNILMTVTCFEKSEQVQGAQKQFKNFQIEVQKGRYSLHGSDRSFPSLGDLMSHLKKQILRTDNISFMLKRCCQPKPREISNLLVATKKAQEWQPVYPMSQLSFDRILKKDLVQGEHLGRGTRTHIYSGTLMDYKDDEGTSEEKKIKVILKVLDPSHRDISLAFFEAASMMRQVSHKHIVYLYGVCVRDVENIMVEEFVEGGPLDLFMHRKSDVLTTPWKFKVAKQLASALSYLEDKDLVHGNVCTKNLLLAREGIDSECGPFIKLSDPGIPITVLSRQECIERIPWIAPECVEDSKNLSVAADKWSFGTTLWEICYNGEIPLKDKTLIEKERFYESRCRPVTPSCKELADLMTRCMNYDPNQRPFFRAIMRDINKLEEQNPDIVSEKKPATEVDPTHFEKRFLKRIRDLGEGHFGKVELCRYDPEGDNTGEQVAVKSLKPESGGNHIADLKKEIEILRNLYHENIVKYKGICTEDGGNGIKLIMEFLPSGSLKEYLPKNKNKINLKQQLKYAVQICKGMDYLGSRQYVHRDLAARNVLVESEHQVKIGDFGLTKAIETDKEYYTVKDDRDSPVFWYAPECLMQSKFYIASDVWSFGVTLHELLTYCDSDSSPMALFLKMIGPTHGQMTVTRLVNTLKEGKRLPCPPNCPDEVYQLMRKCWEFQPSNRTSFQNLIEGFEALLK
T3 sequence (O60674 whole entry): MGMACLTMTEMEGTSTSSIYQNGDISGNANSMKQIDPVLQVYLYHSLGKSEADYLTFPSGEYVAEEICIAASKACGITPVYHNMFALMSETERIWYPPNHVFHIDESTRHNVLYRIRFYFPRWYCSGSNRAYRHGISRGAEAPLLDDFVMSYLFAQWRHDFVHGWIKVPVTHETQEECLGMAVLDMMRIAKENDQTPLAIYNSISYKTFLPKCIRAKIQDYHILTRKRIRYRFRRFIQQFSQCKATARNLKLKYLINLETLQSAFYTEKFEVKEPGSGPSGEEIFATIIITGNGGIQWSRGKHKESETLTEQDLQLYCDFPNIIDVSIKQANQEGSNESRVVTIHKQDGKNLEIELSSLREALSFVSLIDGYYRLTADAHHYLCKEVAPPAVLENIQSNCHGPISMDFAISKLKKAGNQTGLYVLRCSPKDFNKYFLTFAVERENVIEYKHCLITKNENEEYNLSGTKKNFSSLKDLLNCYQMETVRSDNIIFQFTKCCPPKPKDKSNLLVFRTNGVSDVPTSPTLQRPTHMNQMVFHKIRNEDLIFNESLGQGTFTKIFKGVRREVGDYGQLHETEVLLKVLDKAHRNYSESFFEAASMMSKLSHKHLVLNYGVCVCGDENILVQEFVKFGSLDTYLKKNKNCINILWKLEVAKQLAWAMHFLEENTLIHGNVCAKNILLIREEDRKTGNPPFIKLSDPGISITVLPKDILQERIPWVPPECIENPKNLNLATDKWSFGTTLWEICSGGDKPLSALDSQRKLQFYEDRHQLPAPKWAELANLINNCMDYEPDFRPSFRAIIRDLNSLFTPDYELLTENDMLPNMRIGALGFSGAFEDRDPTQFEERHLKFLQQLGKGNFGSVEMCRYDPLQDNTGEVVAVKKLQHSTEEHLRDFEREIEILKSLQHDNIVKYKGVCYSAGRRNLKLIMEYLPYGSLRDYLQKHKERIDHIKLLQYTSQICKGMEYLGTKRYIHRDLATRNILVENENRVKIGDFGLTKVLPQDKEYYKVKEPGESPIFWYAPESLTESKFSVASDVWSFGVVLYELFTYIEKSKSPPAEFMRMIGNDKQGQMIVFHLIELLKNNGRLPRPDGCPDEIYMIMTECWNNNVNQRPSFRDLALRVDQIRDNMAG

On to `Cn1cc(-c2cc3nccn3c(-c3cnn(C4CCCC4)c3)n2)cn1` [Example 34, 5-(1-cyclopentyl-1H-pyrazol-4-yl)-7-(1-methyl-1H-pyrazol-4-yl)imidazo[1,2-c]pyrimidine], for which the concentration for half-maximal inhibition (IC50) against JAK1 is more than 1000 nM; against JAK3, more than 1000 nM; against JAK2 it was 100 to 1000 nM; against Human Tyk2 kinase domain it was 100 to 1000 nM.

As to `Cn1cc(-c2cc3nccn3c(-c3cnn(C(CCO)C4CC4(F)F)c3)n2)cn1` (stereo not drawn) [Example 35, 3-(2,2-difluorocyclopropyl)-3-(4-(7-(1-methyl-1H-pyrazol-4-yl)imidazo[1,2-c]pyrimidin-5-yl)-1H-pyrazol-1-yl)propan-1-ol], the half-inhibitory concentration (IC50) against JAK1 was more than 1000 nM; at JAK3, more than 1000 nM; on JAK2 it was more than 1000 nM; against Human Tyk2 kinase domain, 100 to 1000 nM.

`Cn1cc(-c2cc3nccn3c(-c3cnn([C@H](CCF)C4CCC4)c3)n2)cn1` [Example 36, (R)-5-(1-(1-cyclobutyl-3-fluoropropyl)-1H-pyrazol-4-yl)-7-(1-methyl-1H-pyrazol-4-yl)imidazo[1,2-c]pyrimidine]: the IC50 at JAK1 is 100 to 1000 nM; at JAK3 it was 100 to 1000 nM; at JAK2, 10 to 100 nM; on Human Tyk2 kinase domain it was less than 10 nM.

For the molecule `Cn1cc(-c2cc3nccn3c(-c3cnn([C@@H](CCF)C4CCC4)c3)n2)cn1` [Example 37, (S)-5-(1-(1-cyclobutyl-3-fluoropropyl)-1H-pyrazol-4-yl)-7-(1-methyl-1H-pyrazol-4-yl)imidazo[1,2-c]pyrimidine], the IC50 at JAK1 lay in the range of 100 to 1000 nM; on JAK3, 100 to 1000 nM; at JAK2, 100 to 1000 nM; on Human Tyk2 kinase domain it was 10 to 100 nM.

In the case of `C/C=C/[C@H](C1CC1)n1cc(-c2nc(-c3cnn(C)c3)cc3nccn23)cn1` [Example 38, (S,E)-5-(1-(1-cyclopropylbut-2-en-1-yl)-1H-pyrazol-4-yl)-7-(1-methyl-1H-pyrazol-4-yl)imidazo[1,2-c]pyrimidine], the concentration for half-maximal inhibition (IC50) against JAK1 is more than 1000 nM; on JAK3, more than 1000 nM; at JAK2 it was 100 to 1000 nM; on Human Tyk2 kinase domain it was 100 to 1000 nM.

Regarding `CC=C[C@@H](C1CC1)n1cc(-c2nc(-c3cnn(C)c3)cc3nccn23)cn1` [Example 39, (R)-5-(1-(1-cyclopropylbut-2-en-1-yl)-1H-pyrazol-4-yl)-7-(1-methyl-1H-pyrazol-4-yl)imidazo[1,2-c]pyrimidine], the IC50 fell in the range of 100 to 1000 nM at JAK1, 100 to 1000 nM against JAK3, 100 to 1000 nM against JAK2 and 10 to 100 nM at Human Tyk2 kinase domain.

For `C[C@@H](O)C[C@H](C1CC1)n1cc(-c2nc(-c3cnn(C)c3)cc3nccn23)cn1` [Example 40, (2R,4R)-4-cyclopropyl-4-(4-(7-(1-methyl-1H-pyrazol-4-yl)imidazo[1,2-c]pyrimidin-5-yl)-1H-pyrazol-1-yl)butan-2-ol], the half-inhibitory concentration (IC50) was more than 1000 nM against JAK1, more than 1000 nM against JAK3, 100 to 1000 nM against JAK2 and 100 to 1000 nM at Human Tyk2 kinase domain.

With `C[C@H](O)C[C@@H](C1CC1)n1cc(-c2nc(-c3cnn(C)c3)cc3nccn23)cn1` [Example 41, (2S,4S)-4-cyclopropyl-4-(4-(7-(1-methyl-1H-pyrazol-4-yl)imidazo[1,2-c]pyrimidin-5-yl)-1H-pyrazol-1-yl)butan-2-ol], the IC50 is more than 1000 nM at JAK1, more than 1000 nM against JAK3, 100 to 1000 nM at JAK2 and 100 to 1000 nM at Human Tyk2 kinase domain.

Consider `CC[C@H](CCF)n1cc(-c2nc(-c3cnn(C)c3)cc3nccn23)cn1` [Example 42, (R)-5-(1-(1-fluoropentan-3-yl)-1H-pyrazol-4-yl)-7-(1-methyl-1H-pyrazol-4-yl)imidazo[1,2-c]pyrimidine], for which the IC50 at JAK1 was 100 to 1000 nM; on JAK3, 100 to 1000 nM; on JAK2 it was 10 to 100 nM; on Human Tyk2 kinase domain, less than 10 nM.

`CC[C@@H](CCF)n1cc(-c2nc(-c3cnn(C)c3)cc3nccn23)cn1` [Example 43, (S)-5-(1-(1-fluoropentan-3-yl)-1H-pyrazol-4-yl)-7-(1-methyl-1H-pyrazol-4-yl)imidazo[1,2-c]pyrimidine]: the IC50 against JAK1 was 100 to 1000 nM; against JAK3 it was 100 to 1000 nM; against JAK2, 10 to 100 nM; at Human Tyk2 kinase domain, 10 to 100 nM.

On to `Cn1cc(-c2cc3nccn3c(-c3cnn(C(C/C=C\F)C4CC4)c3)n2)cn1` (stereo not drawn) [Example 44, (Z)-5-(1-(1-cyclopropyl-4-fluorobut-3-en-1-yl)-1H-pyrazol-4-yl)-7-(1-methyl-1H-pyrazol-4-yl)imidazo[1,2-c]pyrimidine], for which the IC50 was in the range of 100 to 1000 nM at JAK1, 100 to 1000 nM against JAK3, 10 to 100 nM against JAK2 and 10 to 100 nM against Human Tyk2 kinase domain.

In the case of `CC#CCC(C1CC1)n1cc(-c2nc(-c3cnn(C)c3)cc3nccn23)cn1` (stereo not drawn) [Example 45, 5-(1-(1-cyclopropylpent-3-yn-1-yl)-1H-pyrazol-4-yl)-7-(1-methyl-1H-pyrazol-4-yl)imidazo[1,2-c]pyrimidine], the half-maximal inhibitory concentration (IC50) at JAK1 was more than 1000 nM; on JAK3, more than 1000 nM; against JAK2 it was 100 to 1000 nM; against Human Tyk2 kinase domain, 100 to 1000 nM.

As for `Cn1cc(-c2cc3nccn3c(-c3cnn(C4(CCF)CN(S(=O)(=O)NC5CC5)C4)c3)n2)cn1` [Example 46, N-cyclopropyl-3-(2-fluoroethyl)-3-(4-(7-(1-methyl-1H-pyrazol-4-yl)imidazo[l,2-c]pyrimidin-5-yl)-1H-pyrazol-1-yl)azetidine-1-sulfonamide], the IC50 against JAK1 is 100 to 1000 nM; on JAK3, more than 1000 nM; against JAK2, 100 to 1000 nM; at Human Tyk2 kinase domain, 100 to 1000 nM.

As for `Cn1cc(-c2cc3nccn3c(-c3cnn(C(CCC(F)F)C4CC4)c3)n2)cn1` (stereo not drawn) [Example 47, 5-(1-(1-cyclopropyl-4,4-difluorobutyl)-1H-pyrazol-4-yl)-7-(1-methyl-1H-pyrazol-4-yl)imidazo[1,2-c]pyrimidine], the IC50 against JAK1 fell in the range of 100 to 1000 nM; against JAK3 it was 100 to 1000 nM; at JAK2, 10 to 100 nM; against Human Tyk2 kinase domain, 10 to 100 nM.

On to `Cn1cc(-c2cc3nccn3c(-c3cnn([C@H](CC=C(F)F)C4CC4)c3)n2)cn1` [Example 49, (R)-5-(1-(1-cyclopropyl-4,4-difluorobut-3-en-1-yl)-1H-pyrazol-4-yl)-7-(1-methyl-1H-pyrazol-4-yl)imidazo[1,2-c]pyrimidine], for which the IC50 is 10 to 100 nM against JAK1, 10 to 100 nM on JAK3, 10 to 100 nM against JAK2 and less than 10 nM at Human Tyk2 kinase domain.
